Paper PMC5700923, “Second messenger analogues highlight unexpected substrate sensitivity of CD38: total synthesis of the hybrid “L-cyclic inosine 5′-diphosphate ribose”” (Scientific Reports, 2017)
Values belong to the compound of their own block, whether it stands above or below them.

Columns and labels:
CD38 (shCD38) [1] = biological target: T1, CD38 (shCD38) (Homo sapiens, UniProt P28907); assay: inhibition of cADPR hydrolysis, fluorimetric cycling assay; assay type: biochemical; conditions: read-out: L-Ribose / IC50
T1 construct: human CD38 catalytic domain (shCD38)
T1 sequence (P28907 45-300 limits assumed): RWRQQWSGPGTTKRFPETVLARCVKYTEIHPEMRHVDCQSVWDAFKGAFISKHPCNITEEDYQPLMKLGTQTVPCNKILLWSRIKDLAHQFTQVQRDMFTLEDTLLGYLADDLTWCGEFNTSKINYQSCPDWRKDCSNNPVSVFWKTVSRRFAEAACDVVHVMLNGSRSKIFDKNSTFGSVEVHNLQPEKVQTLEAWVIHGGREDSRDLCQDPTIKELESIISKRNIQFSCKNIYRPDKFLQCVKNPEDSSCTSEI

CD38 (shCD38) [2] = biological target: T1, CD38 (shCD38); assay: inhibition of cADPR hydrolysis, fluorimetric cycling assay; also hydrolysed by shCD38 (RP-HPLC); assay type: biochemical; conditions: read-out: L-Ribose / IC50
Aplysia cyclase = biological target: T2, Aplysia cyclase (Aplysia californica, UniProt P29241); assay: X-ray crystallography, […] cIDPR (authors' unpublished data, Supplementary Figure S2); assay type: binding
T2 construct: wild-type
T2 sequence (P29241 25-282): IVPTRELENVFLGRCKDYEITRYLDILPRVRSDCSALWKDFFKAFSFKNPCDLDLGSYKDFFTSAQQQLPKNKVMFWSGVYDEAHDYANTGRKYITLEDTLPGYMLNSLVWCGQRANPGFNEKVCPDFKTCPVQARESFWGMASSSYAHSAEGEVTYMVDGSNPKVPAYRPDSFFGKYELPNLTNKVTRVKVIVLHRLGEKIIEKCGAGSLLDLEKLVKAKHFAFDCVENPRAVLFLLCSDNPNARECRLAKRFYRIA

IC50 (CD38 (shCD38) [1]): 21 ± 2 µM
Structure (SMILES): Nc1nc2c(=O)n3cnc2n1[C@@H]1O[C@H](COP(=O)(O)OP(=O)(O)OC[C@@H]2O[C@H]3[C@@H](O)[C@H]2O)[C@@H](O)[C@H]1O [compound 7, 8-NH2-L-cIDPR]

IC50 (CD38 (shCD38) [2]): 526 ± 36 µM
Structure (SMILES): O=c1c2ncn3c2ncn1[C@H]1O[C@@H](COP(=O)(O)OP(=O)(O)OC[C@H]2O[C@@H]3[C@H](O)[C@@H]2O)[C@H](O)[C@@H]1O [compound 5, L-cIDPR]

Structure (SMILES): O=c1c2ncn3c2ncn1[C@@H]1O[C@H](COP(=O)(O)OP(=O)(O)OC[C@H]2O[C@@H]3[C@H](O)[C@@H]2O)[C@@H](O)[C@H]1O [compound 2, cIDPR]
ligand species seen in crystal structure (Aplysia cyclase): both linear IDPR and the cyclic N1-cIDPR are present and close to each other, with cIDPR in an upside-down orientation
